# Results taken from patent US20220205049A1, “METHODS OF DETECTING AND PREDICTING BREAST CANCER” (priority 2019, published 2022).
# Tested on: breast tissue
# Test: Mifepristone trial: breast tissue biopsies before and after treatment, DNA methylation (EPIC array), EpiDISH cell type composition and WID-BC-index
# Assay type: in vivo, human
# Text: The second set of samples were obtained from the clinical trial “The Effect of a Progesterone Receptor Modulator on Breast Tissue in Women With BRCA-1 and -2 Mutations—a Placebo Controlled RCT” (ClinicalTrials.gov Identifier: NCT01898312; regional ethical review board at Karolinska Institutet permit 2009/144-31/4). Study subjects were healthy premenopausal women aged 18-43 years with regular menstrual cycles lasting 25-35 days and with no contraindications to mifepristone. The main exclusion criteria were: use of any hormonal or intrauterine contraception and pregnancy or breastfeeding 2 months prior to the study; a history of breast cancer or other malignancies and adnexal abnormality upon transvaginal ultrasound examination. All women were instructed to use barrier contraceptive methods throughout the duration of the study.
# After signing an informed consent, study subjects were randomised into two groups. One group (i.e. 11 BRCA carriers and 9 controls) was treated with 50 mg mifepristone (one quarter of 200 mg Mifegyne®, Exelgyn, Paris, France) every other day for two months (56 days) starting on the first day of the menstrual cycle. […]
# We analysed breast tissue samples from 21 BRCA carriers and 23 healthy controls before and after treatment with either mifepristone or placebo for two months. […]
compound,measurement,setting,value
CC#C[C@]1(O)CC[C@H]2[C@@H]3CCC4=CC(=O)CCC4=C3[C@@H](c3ccc(N(C)C)cc3)C[C@@]21C [mifepristone],women with downward trend in the WID-BC-index after treatment,"breast tissue, after adjustment for fat content, before vs after two months treatment, did not reach statistical significance",80%
same,epithelial cell proportion in breast tissue samples after treatment,"matched BRCA carrier and control groups, before vs after 50 mg every other day for two months, not seen in the placebo group",statistically significant decrease
